Entries after “also recorded” stand apart in the source; their conditions may differ.
How the values were obtained:
[1] = test system: duckweed (Lemna paucicostata); assay: secondary bioassay, dose-response curve based on growth rate of duckweed frond surface; format: in vivo; details: for IC50: Lemna aequinoctialis, growth rate of duckweed (Lemna paucicostata) frond surface, read-out: IC50 (μM), herbicidal activity in a secondary bioassay; for activity compared with commercial herbicides bentazon, clomazone, glyphosate, glufosinate, asulam, chloropropham and EPTC in the same bioassay: comparison with data of Michel, A., et al. (2004)
Method: The phytotoxic activity of compounds belonging to formula (III), (V), or (VII) classes were evaluated in a primary bioassay. […] The seeds of monocot bentgrass (Agrostis stolonifera) and dicot Arabidopsis (Arabidopsis thaliana) were exposed for 7 days to 1000 μM solution of each chemical. […] Next, a detailed assessment of phytotoxic activity of potential herbicide candidates was accomplished by measurement a growth of duckweed (Lemna paucicostata) frond surface (Table 1).
Next, a detailed assessment of the phytotoxic activity of the potential herbicide candidates was done by calculating dose-response curve base on growth rate of duckweed (Lemna paucicostata) frond surface.
Next, a detailed assessment of the phytotoxic activity of the potential herbicide candidates was done by calculating dose-response curves base on growth rate of duckweed (Lemna paucicostata) frond surface.
Next, a detailed assessment of the phytotoxic activity of the potential herbicide candidates was done by calculating dose-response curve based on the growth rate of duckweed (Lemna paucicostata) frond surface.

[2] = test system: monocot bentgrass (Agrostis stolonifera); assay: primary bioassay, bentgrass seeds exposed to 1000 μM solution for 7 days; format: in vivo; details: for growth of bentgrass seedlings: compared to negative controls H2O or 10% acetone
Method: The phytotoxic activity of compounds belonging to formula (III), (V), or (VII) classes were evaluated in a primary bioassay. The synthetic triketone herbicides mesotrione and sulcotrione were used as positive controls. The seeds of monocot bentgrass (Agrostis stolonifera) and dicot Arabidopsis (Arabidopsis thaliana) were exposed for 7 days to 1000 μM solution of each chemical. […] Chlorosis of treated seedlings is a common symptom of HPPD enzyme inhibition, and the obtained results are an initial confirmation this mode of action for these new compounds. Next, a detailed assessment of phytotoxic activity of potential herbicide candidates was accomplished by measurement a growth of duckweed (Lemna paucicostata) frond surface (Table 1). Mesotrione and sulcotrione were used as positive controls.
(§1) The synthetic triketone herbicides mesotrione and sulcotrione were used as positive controls. For comparative purposes, water as well as 10% acetone in water were used as negative controls. The seeds of monocot bentgrass (Agrostis stolonifera) and dicot Arabidopsis (Arabidopsis thaliana) were exposed for 7 days to 1000 μM solution of each chemical. […] Chlorosis of treated seedlings is a common symptom of a typical HPPD enzyme inhibition, and the obtained results are an initial confirmation this mode of action for these new compounds.
The synthetic triketone herbicides mesotrione and sulcotrione were used as positive controls. For comparative purposes, water as well as 10% acetone in water were used as negative controls. The seeds of monocot bentgrass (Agrostis stolonifera) and dicot Arabidopsis (Arabidopsis thaliana) were exposed for 7 days to 1000 μM solution of each chemical.
as §1, with “The phytotoxic activity of compounds belonging to formula (VII) (compounds (VII-1) and (VII-2)) was evaluated in a primary bioassay. The synthetic” for “The synthetic”

Compound | IC50 [1] | activity compared with commercial herbicides bentazon, clomazone, glyphosate, glufosinate, asulam, chloropropham and EPTC in the same bioassay [1] | chlorosis of bentgrass seedlings [2] | growth of bentgrass seedlings [2]
CC1(C)OC(=O)C(=C(O)c2ccc(C(F)(F)F)cc2[N+](=O)[O-])C(=O)O1 [III-2, 2,2-dimethyl-5-(2-nitro-4-(trifluoromethyl)benzoyl)-1,3-dioxane-4,6-dione] | 1.9 µM | more active | most of them were chlorotic; also recorded: most of them developed symptoms of chlorosis | significantly impacted growth; also recorded: significantly reduced growth
CC1(C)OC(=O)C(=C(O)CCc2ccccc2)C(=O)O1 [III-4, 2,2-dimethyl-5-(3-phenylpropanoyl)-1,3-dioxane-4,6-dione] | 13.2 µM | – | – | –
CC1(C)OC(=O)C(=C(O)c2ccc(S(C)(=O)=O)cc2Cl)C(=O)O1 [III-1, 5-(2-chloro-4-(methylsulfonyl)benzoyl)-2,2-dimethyl-1,3-dioxane-4,6-dione] | – | – | did not develop chlorosis | growth of some of them was reduced
CCCC1(CCC)OC(=O)C(=C(O)CCc2ccccc2)C(=O)O1 [III-6, 5-(3-phenylpropanoyl)-2,2-dipropyl-1,3-dioxane-4,6-dione] | 2.6 µM | more active | – | –
O=C1OC2(CCCC2)OC(=O)C1=C(O)CCc1ccccc1 [III-5, 8-(3-phenylpropanoyl)-6, 10-dioxaspiro [4.5] decane-7,9-dione] | 17.9 µM | – | – | –
CC(C)CC(O)=C1C(=O)OC(C)(C)OC1=O [VII-1, 2,2-dimethyl-5-(3-methylbutanoyl)-1,3-dioxane-4,6-dione] | 1.14 µM | – | – | –
CC1(C)OC(=O)C(=C(O)c2ccc(S(C)(=O)=O)cc2[N+](=O)[O-])C(=O)O1 [III-3, 2,2-dimethyl-5-(4-(methylsulfonyl)-2-nitrobenzoyl)-1,3-dioxane-4,6-dione] | – | – | did not develop chlorosis | growth of some of them was reduced
CC(C)CC(O)=C1C(=O)OC2(CCCC2)OC1=O [VII-2, 8-(3-methylbutanoyl)-6,10-dioxaspiro [4.5] decane-7,9-dione] | 3.3 µM | – | – | –

Reference: patent US20250107525A1, “CARBOXYLIC ACID-DERIVED KETO-DIESTERS AND USES THEREOF” (The United States of America, as represented by the …, priority 2023, published 2025)
